A melting point compilation (Tetko et al.; mined from patent text by program, amines drawn as free bases though some values may be those of a salt)

Row | melting point [°C] | Structure (SMILES)
1 | 120 to 121 | COc1ccc(Br)cc1C(=O)NCCc1ccc(CCC(=O)O)cc1
2 | 95 to 98 | CC(C)(C)OC(=O)NCC1Cc2ccc(OCc3ccccc3)cc2C1 (stereo unspecified)
3 | 130 to 133 | CSC(Nc1cc(C(F)(F)F)cc(C(F)(F)F)c1)=C(C#N)S(=O)(=O)C(C)C
4 | 157 to 159 | CCOc1cc2nc(NC)nc(-c3cccc(-c4cnc5ccccc5c4)c3)c2cc1OCC
5 | 67 to 68 | c1ccc(COc2cccc(OCc3ccccc3)c2OCc2ccccc2)cc1
6 | 175 | N#CC(CC1CCCCC1)c1n[nH]c2cc(O)ccc12 (stereo unspecified)
7 | 165 to 167 | CC1(N)CN(C(=O)Nc2ccc(C(F)(F)F)cc2)N=C1c1ccc(Cl)cc1 (stereo unspecified)
8 | 165 to 166 | O=[N+]([O-])c1ccc2c(c1)S(=O)(=O)NCN2CCF
9 | 234 to 236 | O=C1c2cccc3c(Cl)ccc(c23)C(=O)N1O
10 | 64 to 66 | CCN(c1nc(C)cc(C)n1)c1ccc(C(C)C)cc1SC
11 | 214 to 219 | CC(=O)OCC(=O)C1(O)C(C)CC2C3CCC4=CC(=O)CCC4(C)C3C(=O)CC21C (stereo unspecified)
12 | 169 to 171 | CCCCCCCCc1cccc(N2CC(=O)NC(=O)N2)c1
13 | 92 to 97 | CCc1cc2c(cc1OC)C(CN1CCC(c3noc4cc(F)ccc34)CC1)=C2
14 | 157 | CNC(=S)C1(c2ccccn2)OCCCS1 (stereo unspecified)
15 | 261 to 263 | CCCOc1ccc(S(=O)(=O)Nc2ccc3[nH]ncc3c2)cc1-c1nc2cc(N)c(N)cc2c(=O)[nH]1
16 | 75 to 76 | OCCCCc1ccc(OCc2coc(/C=C/c3ccc(F)cc3F)n2)cc1
17 | 176 | Nc1cc(Cl)c([N+](=O)[O-])cc1CCO
18 | 229 to 230 | CCc1cn(C2CC(O)C(CCC(=O)Cc3c(Cl)cccc3Cl)O2)c(=O)[nH]c1=O (stereo unspecified)
19 | 153 to 154 | COc1ccc(Nc2ccc(C(=O)O)cc2)c2ccccc12
20 | 150 to 152 | O=c1c2c(nc3c(OCc4ccccc4)cccn13)CCC2

Row | melting point [°C] | Structure (SMILES)
21 | 245 to 250 | O=C(Nc1ccc(I)cc1)c1ccncc1
22 | 215 to 245 | N#Cc1ccc2c(c1)C1(c3ccccc3-2)c2ccccc2-c2ccc(C#N)cc21
23 | 151 to 152 | NC(=O)CCc1cnoc1-c1ccccc1
24 | 195 to 196 | O=C(Cc1c(-c2ccccc2)c2cc(CSc3ccccn3)c(Cl)cc2oc1=O)Nc1ccc(F)cc1C(F)(F)F
25 | 210 to 211 | N#Cc1cc(-c2nccs2)nn1-c1ccc(NC(=O)c2ccncc2F)cc1
26 | 105 | CC(C)c1ccc(Cn2[nH]c(N)cc2=O)cc1
27 | 48 | CCOc1ccc([N+](=O)[O-])c(F)c1
28 | 149 to 151 | CCNC(=O)OC1CC(C)(C)N(OC(=O)NCC)C(C)(C)C1
29 | 98 to 104 | COc1cc(OC)cc(C(O)C(=O)c2ccccc2)c1 (stereo unspecified)
30 | 196 to 198 | CNC(=O)c1cc(-c2ccc(-c3ccco3)cc2)n(-c2ccc(S(C)(=O)=O)c(F)c2)n1
31 | 108 to 110 | CC(C)NC(=O)OCC(=O)c1ccccc1
32 | 115 to 116 | COc1ccc(CCc2ccc(N)cc2)cc1OC
33 | 167 to 168 | C=CCNc1nc(N(CC=C)CC=C)nc2ccc([N+](=O)[O-])cc12
34 | 157 to 159 | O=C1COC(CNC(=O)c2cccnc2Oc2ccc(F)cc2)CN1 (stereo unspecified)
35 | 168 to 170 | Cn1cc(C2=C(c3cn(CCCBr)c4ccccc34)C(=O)OC2=O)c2ccccc21
36 | 214 to 216 | Cn1ncc2c1-c1c(Oc3ccc(N)cc3)sc(C(N)=O)c1CC2
37 | 254 to 255 | Cc1cc(N=C2NCCN2)cc(NS(C)(=O)=O)c1C
38 | 176 to 177 | CCn1ncc2c1ncc1c(N3CCCCC3)nc3cc(C)nn3c12
39 | 105 to 112 | COCc1cnc2c(NC(=O)c3c(Cl)cccc3Cl)ccc(C)c2c1N1CCN(C)C1=O

Row | Structure (SMILES) | melting point [°C]
40 | c1ccc(C2=NOC3(CCNCC3)C2)cc1 | 115
41 | COc1ccc(CN2Cc3c(C(N)=O)ncn3-c3ccc(Cl)cc3C2=O)c(OC)c1 | > 220
